# Test results: article PMC4116524, “A virtual screen identified C96 as a novel inhibitor of phosphatidylinositol 3-kinase that displays potent preclinical activity against multiple myeloma in vitro and in vivo” (Oncotarget, 2014)
# How the values were obtained:
# MM cell [1] = test system: MM cell; set-up: method as in PMID 24013662; conditions: cited from earlier work
# PI3Kγ and δ = test system: PI3Kγ and δ; set-up: method as in PMID 20505158; conditions: read-out: IC50s in inhibiting PI3K activity; cited from earlier work
# MM cell [2] = test system: MM cell; set-up: method as in PMID 20505158; conditions: cited from earlier work
# [3] = test system: AKT phosphorylation in LP1 and JJN3 cells; assay: IGF-1-stimulated AKT phosphorylation, immunoblotting (Figure 3A); assay type: cell-based; conditions: 100 μM, 2 hrs, IGF-1 15 min
# Experimental: To elucidate this specificity, we first evaluated its effects on IGF-1R because IGF-1R as a receptor tyrosine kinase activates PI3K in the presence of IGF-1. To exclude the potential effects of C96 on IGF-1 signaling, LP1 and JJN3 cells were starved overnight followed by C96 or S14161 treatment for 2 hrs, and IGF-1 stimulation for 15 min. As expected, IGF-1 triggered AKT phosphorylation but it was suppressed by both C96 and the proven PI3K inhibitor S14161 without affecting total AKT expression (Figure 3A). […] Next, we evaluated other kinases including non-receptor kinase c-Src and a PI3K parallel kinase ERK which transduces external cellular signals. Both LP1 and JJN3 cells were treated with C96 at increasing concentrations that inhibited AKT and mTOR activation (Figure 2C).
# Figure 3 C96 inhibits AKT but not IGF-1R, ERK or c-Src kinase activation (A) LP1 and JJN3 cells were starved overnight, then treated with 100 (μM of C96 or S14161 for 2 hrs, followed by IGF-1 (100 ng/mL) for 15 min. After incubation, cells were harvested and the expression of p-AKT, p-IGF-1R, total AKT (T-AKT), and IGF-1R proteins were detected by immunoblotting. (B) LP1 and JJN3 were treated with C96 at indicated concentrations for 24 hrs followed by immunoblotting assay for the expression of p-Src, c-Src, p-ERK, and ERK. GAPDH was used as a loading control. […]
compound,measurement,setting,value
COc1c(OCCCN2CCOCC2)ccc2c1N=C(NC(=O)c1cnc(N)nc1)N1CCN=C21 [BAY80-6946],concentration required to inhibit MM cell proliferation,MM cell [1],more than 1000 nM
CC[C@H](Nc1ncnc2[nH]cnc12)c1nc2cccc(F)c2c(=O)n1-c1ccccc1 [CAL-101],IC50,PI3Kγ and δ,~2.5 nM
same,concentration needed to induce MM cell death,MM cell [2],more than 10 μM
"CCOc1cccc2c1OC(c1ccc(F)cc1)C([N+](=O)[O-])=C2 (stereo not shown) [S14161, reference compound]",AKT phosphorylation triggered by IGF-1,[3],suppressed
